Reference: patent US20240051936A1, “ISOINDOLINONE COMPOUNDS” (Monte Rosa Therapeutics, Inc., priority 2021, published 2024)
Where two headings read alike, the source gives them in different places.

How the values were obtained:
GSPT1 = GSPT1 (Homo sapiens (Human), UniProt P15170+Q96SW2); assay: Immunofluorescence assay for GSPT1 degradation in CAL-Si cells; type: cell-based; settings: CAL-Si cells
Protocol: The compounds were tested in an immunofluorescence assay for their activity to bind to degrade GSPT1. CAL-Si cells were purchased from DSMZ (cat. Number ACC302), sub-cultured in 90% Dulbecco's MEM (4.5 g/L glucose, Gibco 11965)+10% heat inactivated FBS (BioConcept, 2-01F136I) and incubated at 37° C., 5% CO2. For the assay, imaging microtiterplate Cell Carrier 96 Ultra (Perkin Elmer 6055302) were pre-coated with Fibronectin (Sigma F085, 30 μl at 0.2 μg/ml) in PBS (100 μl, Gibco 14190) for 45 min at room temperature, rinsed with PBS and CAL-Si cells (30K cells/well) were plated and let to adhere overnight. Cells were treated with compounds typically using a serial dilution ranging from 30 μM to 0.1 nM for 6 hours. Compounds were stored at 10 mM DMSO stocks. Vehicle (DMSO), positive (CC-885, 10 μM) and rescue controls (positive control plus 0.2 μM bortezomib) were also included at this stage. Cells were subsequently rinsed with PBS and fixed in 10% Formalin solution (50 μl, Sigma HT5011)) for 20 mins at room temperature. Following three consecutive PBS washes (100 μl), cells were permeabilized in 0.1% Triton X-100 in PBS (Sigma 93443, 50 μl) for 15 mins at room temperature. Following three further PBS washes, 50 μl blocking buffer (1% BSA, Sigma A4503, in PBS) was added for 45 min for signal-to-noise reduction.
Primary antibody (human GSPT1, Sigma HPA052488) was diluted in blocking buffer (dil.1/300, 35 μl/well) and incubated with the cells overnight at 4° C. After three PBS washes, Alexa-fluor 488 coupled secondary antibodies (Invitrogen, A32731, dil.1/1000), Alexa-fluor 647-Phalloïdin (Invitrogen, A22287, dil.1/200) and DAPI (Thermo, #62248, dil.1/1000) were diluted in blocking buffer and incubated with the samples for 2 hours at room temperature. After three final PBS washes, samples were conserved in 100 μl PBS in the dark, until measurement. Image acquisition was performed on the Operetta High-Content Imager (Perkin-Elmer). Fluorescence intensity of Alexa-Fluor 488 (GSPT1), Alexa-Fluor 647 (Actin) and DAPI (Nucleus) were measured. For the determination of GSPT1 DC50 values, a custom algorithm implemented in the PerkinElmer image analysis software Harmony-Acapella® was developed. After user-defined setting of adjustment parameters, the analysis was run identically without human intervention for all image fields. DAPI staining of the nuclei was used to determine the location of cells using standard nuclei detection modules. Segmentation artifacts were removed by threshold-based filters for area, roundness and intensity. The outline of the cells was determined analogously from the sum of the normalized, smoothed DAPI and Actin channel, starting from each nucleus. The Alexa-Fluor 488 (GSPT1) signal intensity in each cell was finally measured, in order to obtain a Mean intensity per cell. GSPT1 degradation (DC50) was calculated after normalization to controls and data import in CDD vault Database, using non-linear regression.

[1] = molecular target: Full length wild-type cereblon CRBN (Homo sapiens (Human), UniProt Q96SW2); assay: Fluorescence polarization (FP) assay, cereblon binding
Sequence of Full length wild-type cereblon CRBN (Q96SW2 whole entry): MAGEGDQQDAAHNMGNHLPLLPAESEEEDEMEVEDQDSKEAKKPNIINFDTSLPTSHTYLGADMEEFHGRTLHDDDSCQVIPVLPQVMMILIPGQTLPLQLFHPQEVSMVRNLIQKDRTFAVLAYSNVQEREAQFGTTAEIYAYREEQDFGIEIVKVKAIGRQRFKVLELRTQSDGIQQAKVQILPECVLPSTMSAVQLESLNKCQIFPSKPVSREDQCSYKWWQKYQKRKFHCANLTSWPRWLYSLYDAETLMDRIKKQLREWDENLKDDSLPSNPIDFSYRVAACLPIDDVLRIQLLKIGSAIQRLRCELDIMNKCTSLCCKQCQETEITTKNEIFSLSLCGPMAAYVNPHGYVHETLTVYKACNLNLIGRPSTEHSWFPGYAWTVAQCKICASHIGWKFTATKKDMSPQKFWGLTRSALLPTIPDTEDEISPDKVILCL
Protocol: Compound activity was monitored in a fluorescence polarization (FP) homogeneous assay using 1-[5-({2-[2-(2-{[2-(2,6-dioxopiperidin-3-yl)-1,3-dioxo-2,3-dihydro-1H-isoindol-4-yl]oxy}acetamido)ethoxy]ethyl}carbamoyl)pentyl]-3,3-dimethyl-2-[(1E,3E)-5-[(2E)-1,3,3-trimethyl-5-sulfo-2,3-dihydro-1H-indol-2-ylidene]penta-1,3-dien-1-yl]-3H-indol-1-ium-5-sulfonate as a fluorescent probe. Unless otherwise stated, all reagents were purchased from Sigma Aldrich. Enzymatic reactions were conducted in Perkin-Elmer Black 384 well ProxiPlate Plus (catalogue no. 6008269) in 10 sL total volume. Full length wild-type cereblon CRBN (80.0 nM, 10 sL) was incubated in assay buffer containing 20 mM HEPES (pH 8.0), […], 0.5 mM TCEP and 0.05% Tween 20 in the presence or absence of compound (300 nL). Inhibitors were stored as 10 mM DMSO stocks in an inert environment (low humidity, dark, low oxygen, room temperature) using the Storage Pod System.
Compounds and DMSO were dispensed using the Echo E5XX (Labcyte Inc. USA) to give concentrations from 300 to 0.937 or 3000 to 9.3 nM in a 12 data point curve. […] Following incubation at room temperature for 30 min, the assay was initiated by dispensing the probe to a final concentration of 5 nM (2.5 nL of a 20 μM stock) using the Echo E5XX. FP was measured after a period of 12 hours using a Pherastar plate reader (BMG Labtech, Germany) exciting at 590 nm and measuring the amount of parallel and perpendicular light at 675 nm. The FP signal was subsequently normalized to the no-compound control (i.e., DMSO). Analysis and IC50 values were derived using Dotmatics (Dotmatics UK) software.

[2] = compounds with code A, read-out: DC50 value code
[3] = treated 6 hours, read-out: Code, activity for GSPT1 degradation (DC50)
[4] = cereblon binding, bound, read-out: IC50 value
[5] = wild-type CRBN 80.0 nM, probe 5 nM, FP measured after 12 hours, read-out: rFP IC50

Sequence of GSPT1 (P15170 whole entry): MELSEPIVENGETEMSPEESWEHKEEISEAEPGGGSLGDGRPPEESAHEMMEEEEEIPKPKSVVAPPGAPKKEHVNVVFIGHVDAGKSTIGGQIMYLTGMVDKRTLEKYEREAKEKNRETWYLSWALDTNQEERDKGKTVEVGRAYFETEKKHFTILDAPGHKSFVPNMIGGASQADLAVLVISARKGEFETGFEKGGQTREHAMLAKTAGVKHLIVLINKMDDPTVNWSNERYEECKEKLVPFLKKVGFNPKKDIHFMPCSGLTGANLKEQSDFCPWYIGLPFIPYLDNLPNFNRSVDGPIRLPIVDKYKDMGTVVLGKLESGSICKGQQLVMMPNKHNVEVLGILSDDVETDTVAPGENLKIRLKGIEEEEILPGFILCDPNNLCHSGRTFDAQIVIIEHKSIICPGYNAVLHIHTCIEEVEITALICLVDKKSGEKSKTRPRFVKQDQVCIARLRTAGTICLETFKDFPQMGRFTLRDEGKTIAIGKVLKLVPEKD
Sequence of GSPT1 (Q96SW2 whole entry): as the sequence (Q96SW2 whole entry) above
Sequence of GSPT1 (Q16531 whole entry partner): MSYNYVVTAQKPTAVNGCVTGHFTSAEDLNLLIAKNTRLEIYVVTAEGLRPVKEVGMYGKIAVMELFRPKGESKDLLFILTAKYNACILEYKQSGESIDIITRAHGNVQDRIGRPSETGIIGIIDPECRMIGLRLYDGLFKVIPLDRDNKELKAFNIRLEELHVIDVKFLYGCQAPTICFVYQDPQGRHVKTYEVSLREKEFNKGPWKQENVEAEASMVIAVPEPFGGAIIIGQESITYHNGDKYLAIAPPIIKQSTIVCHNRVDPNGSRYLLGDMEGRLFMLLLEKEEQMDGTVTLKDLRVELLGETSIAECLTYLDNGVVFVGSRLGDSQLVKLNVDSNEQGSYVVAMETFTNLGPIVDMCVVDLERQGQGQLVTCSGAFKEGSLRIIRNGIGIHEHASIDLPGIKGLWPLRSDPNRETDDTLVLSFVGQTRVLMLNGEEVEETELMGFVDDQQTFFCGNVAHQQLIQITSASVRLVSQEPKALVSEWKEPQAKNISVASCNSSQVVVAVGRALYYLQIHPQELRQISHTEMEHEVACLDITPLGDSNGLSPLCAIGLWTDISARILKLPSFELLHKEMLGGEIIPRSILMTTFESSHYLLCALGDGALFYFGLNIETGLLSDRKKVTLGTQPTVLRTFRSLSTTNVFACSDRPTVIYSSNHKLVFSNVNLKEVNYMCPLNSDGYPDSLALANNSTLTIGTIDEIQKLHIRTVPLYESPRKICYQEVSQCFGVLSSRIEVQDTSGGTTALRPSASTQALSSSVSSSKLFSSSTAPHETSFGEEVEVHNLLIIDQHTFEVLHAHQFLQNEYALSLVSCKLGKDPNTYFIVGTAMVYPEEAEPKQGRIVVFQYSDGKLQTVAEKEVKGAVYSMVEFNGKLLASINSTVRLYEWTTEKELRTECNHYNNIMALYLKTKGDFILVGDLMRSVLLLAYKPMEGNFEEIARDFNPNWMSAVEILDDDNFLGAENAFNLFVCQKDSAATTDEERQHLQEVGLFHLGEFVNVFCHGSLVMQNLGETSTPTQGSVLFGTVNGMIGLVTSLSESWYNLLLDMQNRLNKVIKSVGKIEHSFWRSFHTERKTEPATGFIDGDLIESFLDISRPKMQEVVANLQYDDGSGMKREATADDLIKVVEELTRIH

SMILES | DC50 (GSPT1; [2]) | DC50 (GSPT1; [3]) | IC50 [1, 4] | IC50 [1, 5]
COc1cc(COC(=O)Nc2ccc(C(C)(C)C)nc2)cc2c1CN(C1CCC(=O)NC1=O)C2=O (stereo not shown) [Compound 44, (2-(2,6-dioxopiperidin-3-yl)-7-methoxy-3-oxoisoindolin-5-yl)methyl (6-(tert-butyl)pyridin-3-yl)carbamate] | < 30 nM | < 30 nM | < 600 nM | ≤ 600 nM
O=C1CCC(N2Cc3c(F)cc(COC(=O)Nc4cc(Cl)cc(Cl)c4)cc3C2=O)C(=O)N1 (stereo not shown) [Compound 28, (2-(2,6-dioxopiperidin-3-yl)-7-fluoro-3-oxoisoindolin-5-yl)methyl(3,5-dichlorophenyl)carbamate] |  | 30 to 300 nM |  | > 1900 nM
Cc1ccc(NC(=O)OCc2cc(Cl)c3c(c2)C(=O)N(C2CCC(=O)NC2=O)C3)cc1Cl (stereo not shown) [Compound 4, (7-chloro-2-(2,6-dioxopiperidin-3-yl)-3-oxoisoindolin-5-yl)methyl (3-chloro-4-methylphenyl)carbamate] |  | 30 to 300 nM |  | > 1900 nM
COc1cc(COC(=O)Nc2cc(-c3ccccc3)ccn2)cc2c1CN(C1CCC(=O)NC1=O)C2=O (stereo not shown) [Compound 56, (2-(2,6-dioxopiperidin-3-yl)-7-methoxy-3-oxoisoindolin-5-yl)methyl (4-phenylpyridin-2-yl)carbamate] | < 30 nM | < 30 nM | < 600 nM | ≤ 600 nM
COc1cc(COC(=O)Nc2ccc(C(C)(C)C)cc2)cc2c1CN(C1CCC(=O)NC1=O)C2=O (stereo not shown) [Compound 43, (2-(2,6-dioxopiperidin-3-yl)-7-methoxy-3-oxoisoindolin-5-yl)methyl (4-(tert-butyl)phenyl)carbamate] | < 30 nM | < 30 nM | < 600 nM | 600 to 1200 nM
Cc1ccc(NC(=O)OCc2cc(C#N)c3c(c2)C(=O)N(C2CCC(=O)NC2=O)C3)cc1Cl (stereo not shown) [Compound 2, (7-cyano-2-(2,6-dioxopiperidin-3-yl)-3-oxoisoindolin-5-yl)methyl (3-chloro-4-methylphenyl)carbamate] |  | 30 to 300 nM |  | > 1900 nM
COc1cc(COC(=O)Nc2ccc(C3(C)CC3)cc2)cc2c1CN(C1CCC(=O)NC1=O)C2=O (stereo not shown) [Compound 40, (2-(2,6-dioxopiperidin-3-yl)-7-methoxy-3-oxoisoindolin-5-yl)methyl (4-(1-methylcyclopropyl)phenyl)carbamate] | < 30 nM | < 30 nM | < 600 nM | ≤ 600 nM
COc1cc(COC(=O)Nc2ccc(C)c(Cl)c2)cc2c1CN(C1CCC(=O)NC1=O)C2=O (stereo not shown) [Compound 5, (2-(2,6-dioxopiperidin-3-yl)-7-methoxy-3-oxoisoindolin-5-yl)methyl(3-chloro-4-methylphenyl)carbamate] | < 30 nM | < 30 nM | < 600 nM | 600 to 1200 nM
COc1cc(COC(=O)Nc2cc(F)cc(Cl)c2)cc2c1CN(C1CCC(=O)NC1=O)C2=O (stereo not shown) [Compound 50, (2-(2,6-dioxopiperidin-3-yl)-7-methoxy-3-oxoisoindolin-5-yl)methyl(3-chloro-5-fluorophenyl)carbamate] | < 30 nM | < 30 nM | < 600 nM | 600 to 1200 nM
Cc1ccc(NC(=O)OCc2cc(F)c3c(c2)C(=O)N(C2CCC(=O)NC2=O)C3)cc1Cl (stereo not shown) [Compound 3, (2-(2,6-dioxopiperidin-3-yl)-7-fluoro-3-oxoisoindolin-5-yl)methyl(3-chloro-4-methylphenyl)carbamate] |  | 30 to 300 nM |  | > 1900 nM
O=C1CCC(N2Cc3c(F)cc(COC(=O)Nc4cc(F)cc(OC(F)(F)F)c4)cc3C2=O)C(=O)N1 (stereo not shown) [Compound 12, (2-(2,6-dioxopiperidin-3-yl)-7-fluoro-3-oxoisoindolin-5-yl)methyl(3-fluoro-5-(trifluoromethoxy)phenyl)carbamate] |  | 30 to 300 nM |  | > 1900 nM
COc1cc(COC(=O)Nc2cccc(OC(F)F)c2)cc2c1CN(C1CCC(=O)NC1=O)C2=O (stereo not shown) [Compound 53, (2-(2,6-dioxopiperidin-3-yl)-7-methoxy-3-oxoisoindolin-5-yl)methyl (3-(difluoromethoxy)phenyl)carbamate] | < 30 nM | < 30 nM | < 600 nM | ≤ 600 nM

Continued, values first:

DC50 (GSPT1; [2]) | DC50 (GSPT1; [3]) | IC50 [1, 4] | IC50 [1, 5] | SMILES
 | 30 to 300 nM | < 600 nM | 1200 to 1900 nM | O=C1CCC(N2Cc3c(F)cc(COC(=O)Nc4ccc(F)c(OC(F)F)c4)cc3C2=O)C(=O)N1 (stereo not shown) [Compound 7, (2-(2,6-dioxopiperidin-3-yl)-7-fluoro-3-oxoisoindolin-5-yl)methyl(3-(difluoromethoxy)-4-fluorophenyl)carbamate]
< 30 nM | < 30 nM | < 600 nM | ≤ 600 nM | Cc1ccccc1-c1ccc(NC(=O)OCc2cc(F)c3c(c2)C(=O)N(C2CCC(=O)NC2=O)C3)cn1 (stereo not shown) [Compound 19, (2-(2,6-dioxopiperidin-3-yl)-7-fluoro-3-oxoisoindolin-5-yl)methyl (6-(o-tolyl)pyridin-3-yl)carbamate]
< 30 nM | < 30 nM |  | > 1900 nM | CC(C)(C)c1cccc(NC(=O)OCc2cc(F)c3c(c2)C(=O)N(C2CCC(=O)NC2=O)C3)c1 (stereo not shown) [Compound 25, (2-(2,6-dioxopiperidin-3-yl)-7-fluoro-3-oxoisoindolin-5-yl)methyl (3-(tert-butyl)phenyl)carbamate]
< 30 nM | < 30 nM | < 600 nM | 1200 to 1900 nM | COc1cc(COC(=O)Nc2ccc(-c3ccccc3F)nc2)cc2c1CN(C1CCC(=O)NC1=O)C2=O (stereo not shown) [Compound 36, (2-(2,6-dioxopiperidin-3-yl)-7-methoxy-3-oxoisoindolin-5-yl)methyl (6-(2-fluorophenyl)pyridin-3-yl)carbamate]
 | 30 to 300 nM | < 600 nM | 1200 to 1900 nM | O=C1CCC(N2Cc3c(F)cc(COC(=O)Nc4cccc(OC(F)F)c4)cc3C2=O)C(=O)N1 (stereo not shown) [Compound 26, (2-(2,6-dioxopiperidin-3-yl)-7-fluoro-3-oxoisoindolin-5-yl)methyl(3-(difluoromethoxy)phenyl)carbamate]
< 30 nM | < 30 nM | < 600 nM | ≤ 600 nM | COc1cc(COC(=O)Nc2ccc(-c3ccccc3C)nc2)cc2c1CN(C1CCC(=O)NC1=O)C2=O (stereo not shown) [Compound 60, (2-(2,6-dioxopiperidin-3-yl)-7-methoxy-3-oxoisoindolin-5-yl)methyl (6-(o-tolyl)pyridin-3-yl)carbamate]
 | 30 to 300 nM |  | > 1900 nM | CC1(c2ccc(NC(=O)OCc3cc(F)c4c(c3)C(=O)N(C3CCC(=O)NC3=O)C4)cc2)CC1 (stereo not shown) [Compound 13, (2-(2,6-dioxopiperidin-3-yl)-7-fluoro-3-oxoisoindolin-5-yl)methyl (4-(1-methylcyclopropyl)phenyl)carbamate]
